Laboratory results as given in patent US9278992B2, “Function-selective vitamin D receptor agonist” (Nihon University, priority 2007, dated 2016).
Entries after “also recorded” stand apart in the source; their conditions may differ.

Assays:
myeloid leukemia cells = details: compared with 1,25(OH)2D3; Honma et al. 1983; cited from earlier work
[1] = Example 3: mice injected intraperitoneally, body weight and plasma calcium; details: mouse, in vivo, ip
[2] = system: Cyp24a1, calbindin D9k, Trpv6, Trpv5; assay: Example 5: intraperitoneal administration to mice, mRNA expression in kidney and intestinal mucosa; type: in vivo; details: day 8
Text: Blood was collected by heart puncture on day 8 and tissue mRNAs on day 8 were examined.

[3] = Honma et al. 1983; cited from earlier work
[4] = system: Cyp24a1, calbindin D9k, Trpv6, Trpv5; assay: Example 5: oral administration to mice, mRNA expression in kidney and intestinal mucosa; type: in vivo
Text: Blood was collected from the tail on days 0, 2, 4, 6, and 8, and by heart puncture on day 12. […]
(§1) Next, the in vivo effects of orally administered lithocholic acid derivatives (dissolved in corn oil) were examined.

[5] = biological target: T1, G protein-coupled bile acid receptor 1 (GPBAR1) (Homo sapiens, UniProt Q8TDU6); assay: Effect on GPBAR1 (FIG. 1); details: 10 μM
T1 sequence (Q8TDU6 1-330): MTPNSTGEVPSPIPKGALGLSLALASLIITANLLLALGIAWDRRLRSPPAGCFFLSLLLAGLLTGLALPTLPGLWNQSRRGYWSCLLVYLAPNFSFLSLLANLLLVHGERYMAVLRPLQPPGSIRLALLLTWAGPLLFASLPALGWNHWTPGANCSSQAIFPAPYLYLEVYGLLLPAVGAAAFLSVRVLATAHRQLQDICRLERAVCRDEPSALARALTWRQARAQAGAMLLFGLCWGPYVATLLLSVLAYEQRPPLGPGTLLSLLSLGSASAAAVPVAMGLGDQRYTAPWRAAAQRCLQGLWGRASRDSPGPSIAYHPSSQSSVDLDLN

[6] = biological target: T2, farnesoid X receptor (FXR) (Homo sapiens, UniProt Q96RI1); assay: Effect on FXR (FIG. 1); details: 18 μM
T2 sequence (Q96RI1 1-486): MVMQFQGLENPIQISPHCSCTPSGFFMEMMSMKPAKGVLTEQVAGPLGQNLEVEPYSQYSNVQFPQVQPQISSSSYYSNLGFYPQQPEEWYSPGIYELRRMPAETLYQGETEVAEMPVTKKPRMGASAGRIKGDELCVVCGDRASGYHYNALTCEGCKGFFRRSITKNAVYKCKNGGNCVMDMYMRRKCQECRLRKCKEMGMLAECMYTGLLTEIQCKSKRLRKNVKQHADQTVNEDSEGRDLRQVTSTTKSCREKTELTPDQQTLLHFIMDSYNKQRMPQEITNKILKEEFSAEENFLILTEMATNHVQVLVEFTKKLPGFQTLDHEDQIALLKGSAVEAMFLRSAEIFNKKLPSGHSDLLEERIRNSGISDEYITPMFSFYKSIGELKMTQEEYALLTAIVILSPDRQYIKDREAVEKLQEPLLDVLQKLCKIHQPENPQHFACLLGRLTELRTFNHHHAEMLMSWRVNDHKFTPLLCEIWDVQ

VDR target gene CYP24 = assay: Example 3: mice injected intraperitoneally, expression of VDR target gene CYP24 in kidney; type: in vivo; details: intraperitoneal, every other day, day 8
[7] = system: Human myeloid leukemia HL60 cells; assay: Differentiation of myeloid leukemia HL60 cells (Nitro blue tetrazolium-reducing activity); type: cell-based; details: for induction of differentiation marker (Nitro blue tetrazolium-reducing activity), HL60 cells: 3 days
U937 cells = assay: Differentiation markers of myeloid leukemia U937 cells; type: cell-based
VDR [8] = biological target: T3, VDR (Homo sapiens, UniProt P11473); assay: VDR activation, GAL4-VDR luciferase reporter in HEK293 cells; details: compared with lithocholic acid and lithocholic acid acetate
T3 sequence (P11473 127-423 limits assumed): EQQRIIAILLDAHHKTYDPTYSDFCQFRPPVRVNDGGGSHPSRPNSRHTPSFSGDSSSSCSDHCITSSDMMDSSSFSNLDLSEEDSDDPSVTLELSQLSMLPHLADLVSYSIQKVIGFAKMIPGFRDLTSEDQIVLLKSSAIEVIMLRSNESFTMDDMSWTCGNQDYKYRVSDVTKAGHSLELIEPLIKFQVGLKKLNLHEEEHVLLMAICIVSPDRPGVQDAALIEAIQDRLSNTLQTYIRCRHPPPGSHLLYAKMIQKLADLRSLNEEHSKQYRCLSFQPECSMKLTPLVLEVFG
Experimental: Cells were solubilized 16 to 18 hours later, and evaluated for the luciferase activity.

leukemic cells = details: cited from earlier work
[9] = Example 5: intraperitoneal administration to mice, body weight and plasma calcium; type: in vivo; details: 0.7 mmol/kg
Text: […]. […] […]. Blood was collected by heart puncture on day 8 and tissue mRNAs on day 8 were examined.

VDR [10] = biological target: T4, VDR (Homo sapiens, UniProt P11473); details: Non-Patent Documents 2 and 3; cited from earlier work
T4 sequence (P11473 1-427): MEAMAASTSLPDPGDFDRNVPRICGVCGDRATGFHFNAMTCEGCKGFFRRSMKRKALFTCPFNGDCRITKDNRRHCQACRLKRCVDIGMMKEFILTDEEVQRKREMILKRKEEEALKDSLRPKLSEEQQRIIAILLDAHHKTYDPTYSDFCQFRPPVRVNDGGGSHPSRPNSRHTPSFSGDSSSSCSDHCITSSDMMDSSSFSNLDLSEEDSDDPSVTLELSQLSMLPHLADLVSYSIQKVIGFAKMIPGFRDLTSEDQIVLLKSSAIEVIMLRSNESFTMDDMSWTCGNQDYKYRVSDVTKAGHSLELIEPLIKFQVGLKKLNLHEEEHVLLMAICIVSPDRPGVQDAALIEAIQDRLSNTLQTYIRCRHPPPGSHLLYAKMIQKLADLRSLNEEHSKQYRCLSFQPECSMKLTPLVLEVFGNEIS

[11] = Example 5: oral administration to mice, body weight and plasma calcium; details: oral (gavage), 1 mmol/kg
Text: Blood was collected from the tail on days 0, 2, 4, 6, and 8, and by heart puncture on day 12. Tissue mRNAs on day 12 were examined. * indicates p<0.05; ** indicates p<0.01; *** indicates p<0.001, compared with vehicle control.
as §1

[12] = biological target: T2, farnesoid X receptor (FXR); details: Non-Patent Documents 3 and 4; cited from earlier work

C=C1/C(=C\C=C2/CCC[C@]3(C)[C@@H]([C@H](C)CCCC(C)C)CC[C@@H]23)C[C@@H](O)C[C@@H]1O [1α-hydroxyvitamin D3]
survival time of the mice inoculated with leukemia cells (myeloid leukemia cells): more effective than 1,25(OH)2D3 in increasing the survival time
body weight of mice [1]: decreased the body weight of mice
intestinal mucosa Cyp24a1 expression ([2]; 12.5 nmol/kg): induced the intestinal mucosa Cyp24a1 expression
kidney Cyp24a1 expression ([2]; 12.5 nmol/kg): effectively induced the expression
kidney Trpv5 expression ([2]; 12.5 nmol/kg): effectively induced the expression
kidney Trpv6 expression ([2]; 12.5 nmol/kg): effectively induced the expression
kidney calbindin D9k expression ([2]; 12.5 nmol/kg): effectively induced the expression
conversion to 1,25-dihydroxyvitamin D3 after injection [3]: rapidly converted to 1,25-dihydroxyvitamin D3
intestinal mucosa Cyp24a1 expression ([4]; 1 day single oral dose (data not shown)): not observed
intestinal mucosa Cyp24a1 expression ([4]; 10 day oral administration, 12.5 nmol/kg): not increased

CCC(=O)O[C@@H]1CC[C@@]2(C)[C@H](CC[C@@H]3[C@@H]2CC[C@]2(C)[C@@H]([C@H](C)CCC(=O)O)CC[C@@H]32)C1 [lithocholic acid propionate]
effects on GPBAR1 [5]: extremely weak effects
potency on FXR [6]: extremely weak potency on FXR
expression of the VDR target gene CYP24 in kidney (VDR target gene CYP24): induced the expression of the VDR target gene in the organ
body weight of mice [1]: did not adversely affect the body weight or the blood calcium level
induction of differentiation markers, HL-60 cells [7]: induced the differentiation markers
induction of differentiation marker (Nitro blue tetrazolium-reducing activity), HL60 cells ([7]; 10 μM): weakly
induction of differentiation marker (Nitro blue tetrazolium-reducing activity), HL60 cells ([7]; 30 μM): effectively
intestinal mucosa target gene expression ([2]; 0.7 mmol/kg): not effective in inducing intestinal mucosa target gene expression
kidney Cyp24a1 expression ([2]; 0.7 mmol/kg): induced the expression of kidney Cyp24a1 as effectively as 1α(OH)D3
induction of differentiation markers, U937 cells (U937 cells): induced the differentiation markers
kidney Cyp24a1 expression ([4]; oral (gavage), 0.7 mmol/kg and 1 mmol/kg, day 12): induced the kidney Cyp24a1 expression as effectively as 1α(OH)D3
kidney calbindin D9k expression ([4]; oral (gavage), day 12): not induced
selectivity as VDR ligand (VDR versus FXR and GPBAR1) (VDR [8]): more selective VDR ligand (activating agent) than lithocholic acid and lithocholic acid acetate

lithocholic acid acetate
differentiation of leukemic cells (leukemic cells): induced the differentiation of leukemic cells
body weight [9]: did not decrease their body weight
function and potency as VDR ligand (VDR [10]): activated VDR more potently than lithocholic acid; also recorded: more potency on VDR than lithocholic acid
induction of differentiation marker (Nitro blue tetrazolium-reducing activity), HL60 cells ([7]; 10 μM): weakly
induction of differentiation marker (Nitro blue tetrazolium-reducing activity), HL60 cells ([7]; 30 μM): effectively
body weight [11]: did not affect the body weight or plasma calcium
plasma calcium [11]: did not affect the body weight or plasma calcium
activity on FXR [12]: weaker than that of chenodeoxycholic acid and comparable to that of lithocholic acid
